Where two headings read alike, the source gives them in different places.
Tests used:
[1] = tested on: efflux transporters (P-gp, MRP, BCRP); assay type: biochemical; details: human, inside-out vesicles from placental brush border membranes, pH 7.4, probe [3H]-estrone sulfate, 100 nM
[2] = tested on: efflux transporters (P-gp, MRP, BCRP); assay type: biochemical; details: human, inside-out vesicles from placental brush border membranes, pH 7.4, probe [3H]-paclitaxel, 40 nM
[3] = design: species or system human
[4] = design: species or system human; remark: listed apart in the source

Compound | IC50 at 3 min [1] | IC50 at 1 min [2] | normalized transfer (Clearance index) to antipyrine ([3]; Maternal-to-Fetal direction) | concentration in the fetal circuit at the end of the experimental period ([3]; M→F, 4-hour perfusion, initial donor concentration 50 ng/mL) | drug remained in the maternal circuit ([3]; M→F, end of 4-hour perfusion) | drug retained by the tissue ([3]; M→F, end of 4-hour perfusion) | drug transferred to the fetal circuit ([3]; M→F, end of 4-hour perfusion) | fetal/maternal concentration ratio ([3]; M→F, end of 4-hour perfusion) | appearance in the fetal circuit after start of perfusion ([3]; M→F, initial donor concentration 50 ng/mL) | normalized transfer (Clearance index) to antipyrine ([4]; Fetal-to-Maternal direction, p < 0.01 vs Maternal to Fetal) | concentration in the maternal circuit at the end of perfusion ([4]; F→M, 4 hours of perfusion, initial donor concentration 50 ng/mL) | maternal/fetal concentration ratio ([4]; F→M, end of 4 hours of perfusion) | time to appearance in the maternal (recipient) circuit ([4]; F→M, initial donor concentration 50 ng/mL) | transplacental transfer of antipyrine ([3]; marker compound, 20 μg/mL, dual perfusion, 4 h)
CC[C@H](C)C(=O)O[C@H]1C[C@H](O)C=C2C=C[C@H](C)[C@H](CC[C@@H](O)C[C@@H](O)CC(=O)O)[C@H]21 [Pravastatin, pravastatin] | 30 µM | 11 µM | 0.36 ± 0.07 | 8.8 ± 1.8 ng/mL | 68 ± 5% | 14 ± 5% | 18 ± 4% | 0.26 ± 0.06 | within the initial five minutes | 0.48 ± 0.07 | 6.4 ± 1.0 ng/mL | 0.19 ± 0.03 | less than 5 minutes | 
Cc1cc(=O)n(-c2ccccc2)n1C [antipyrine] |  |  |  |  |  |  |  |  |  |  |  |  |  | approximately 50%

— article PMC3891837 (American journal of obstetrics and gynecology, 2013)
